Data from US10357577B2, “Bacterial nitroreductase enzymes and methods relating thereto” (AUCKLAND UNISERVICES LIMITED, priority 2010, dated 2019).

Legend:
[1] = test system: nitroreductase NfsA-expressing HCT116 'activator' cells; assay: MCL (multicellular layer) bystander experiment, NfsA-dependent activation; type: cell-based, human
Protocol: Displacement of the Target cell survival curve to the left (T to Tc) is indicative of the presence of a cytotoxic metabolite(s) able to diffusible out of the sensitive activator (A) cell population. The prodrug concentrations for 10% survival (C10) of target cells (wild-type cells) grown without activators (T), targets in co-culture (TC) and activators (nfsA-expressing cells) in co-culture (AC) were determined by interpolation. BEE-Bystander effect efficiency calculates the drugs bystander effect: ((Log C10T−Log C10TC)/(Log C10T−Log C10AC)).
The prodrug concentrations for 10% survival (C10) of target cells (wild-type cells) grown without activators (T), and targets in co-culture (TC) and activators (NTR-expressing cells) in co-culture (AC) can be determined. The bystander effect of a test prodrug is measured by the bystander effect efficiency which can be calculated using the algorithm ((Log C10T−Log C10TC)/(Log C10T−Log C10AC)).
Millicell-CM membrane inserts (Millipore) were coated in calf-skin collagen type III (Sigma-Aldrich) to facilitate cell attachment. […] After exposure, inserts were disaggregated (0.07% trypsin, 10 min, 37° C., followed by 100 μg/ml DNAase I (Sigma-Aldrich). Cells were counted, resuspended and plated in P60 dishes to determine clonogenic survival. To discriminate clonogenic activator (NTR+) from target (NTR−) colonies cells were plated in non-selective medium (total cells) and medium containing 1 μM puromycin (activator cells). Colonies were grown in a 37° C. 5% CO2 incubator for 10 days before staining with methylene blue (2 g/liter in 50% v/v aqueous ethanol). Colonies containing >50 cells were counted as clonogenic survivors. Surviving fractions for each population was calculated as the plating efficiency for drug-treated MCLs/untreated controls. The drug concentrations for 10% survival (C10) of target cells grown without activators (T), targets in co-culture (Tc) and activators in co-culture (Ac) was determined by interpolation.

[2] = cited from earlier work
[3] = test system: nfsA-expressing cells in mixed HCT116 xenografts; assay: Immunohistochemical detection of EF5 binding in tumour xenograft sections; type: in vivo, mice; details: constant exposure time 0.5 s
Protocol: FIG. 16 (A) illustrates immunohistochemical detection of EF5 binding in human tumour xenografts harbouring 0%, 3%, 12% or 20% HCT-116^nfsA expressing cells. FIG. 16 (A) further illustrates Fluorescent microscope pictures of tumour sections, and FIG. 16 (B) illustrates flow cytometry histograms of EF5/CY5 fluorescence to confirm % NfsA expressing cells of individual tumour.
In vivo: mice were treated with 60 mg/kg EF5 (ip) and left for 24 hrs. Tumour tissue was excised, fixed in 10% formalin dissolved in PBS (48 h), transferred to 70% ethanol and embedded in paraffin. Sections (5 μm) were cut, mounted onto poly-L-lysine coated glass slides and heat fixed for 1 h at 60° C. Sections were dewaxed, rehydrated, washed in Milli-Q water and then rinsed in 0.01 M Tris buffered saline (TBS, pH 7.4). Antigen retrieval was achieved by boiling samples in 10 mM sodium citrate buffer pH 6 for 25 min. Sections were washed with TBS containing 0.1% Tween-20 (TBS-T) and blocked with 1% mouse serum in TBS. After rinsing, the samples were incubated for 2 hr at room temperature with 100 μg/ml anti-EF5 (Alexa-488) primary antibody diluted in PBS containing 0.2% Tween-20. After rinsing in with TBS-T the coverslips were mounted with Prolong Gold antifade (Invitrogen) and sealed with nail varnish. […] Images were analysed and overlaid using Adobe Photoshop software (Adobe Photoshop 4.0).

E. coli NfsA = target: T1, E. coli NfsA (Escherichia coli, UniProt P17117); assay: Purified enzyme kinetics (NADPH oxidation at 340 nm); type: biochemical; details: 0.25 mM NADPH, varying EF5
T1 construct: his6; made in house
T1 sequence (P17117 whole entry): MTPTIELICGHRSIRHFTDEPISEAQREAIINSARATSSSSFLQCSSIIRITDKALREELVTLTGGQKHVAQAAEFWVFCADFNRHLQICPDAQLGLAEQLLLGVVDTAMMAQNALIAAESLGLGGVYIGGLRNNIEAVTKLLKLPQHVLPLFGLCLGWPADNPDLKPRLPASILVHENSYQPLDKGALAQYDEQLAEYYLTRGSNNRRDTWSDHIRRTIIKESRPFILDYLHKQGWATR
Protocol: FIG. 12 illustrates the purified enzyme kinetic data for eleven E. coli nitroreductases with EF5 as a substrate. Reactions contained 10 mM Tris-Cl (pH 7.0), 4% DMSO, 0.25 mM NADPH and varying EF5 concentrations. Reactions were initiated by addition of 10 μl enzyme and changes in absorbance were measured for 15 s at 340 nm on a spectrophotometer to monitor NTR-catalysed NADPH oxidation.
For EF5 and other 2-NI bio-imaging agents, steady-state enzyme kinetics with purified NTRs were assessed spectrophotometrically at 340 nm to monitor NTR catalyzed NADPH oxidation. The molar extinction co-efficient of NADPH (6,220 M^−1 cm^−1) was used for the calculation of enzyme activity. For PR-104A, reduction was measured directly at 400 nm (ε=6,000 M^−1 cm^−1); and for CB1954, reduction was measured directly at 420 nm (ε=1,200 M^−1 cm^−1). Reactions were performed in 100 μl in UVettes (Eppendorf), using the 2 mm light path length. Reactions contained 10 mM Tris-Cl (pH 7.0), 4% DMSO, 0.25 mM NADPH and varying EF5 or PR-104A concentrations. Reactions were initiated by addition of 10 μl enzyme and changes in absorbance were measured for 15 s (during linearity). For calculation of Km and kcat, substrate concentrations were varied from ˜0.2×Km to 5×Km. Non-linear regression analysis and Michaelis-Menten curve fitting was performed using Sigmaplot 10.0 (Systat Software Inc.).

## O=C(Cn1ccnc1[N+](=O)[O-])NCC(F)(F)C(F)(F)F [EF5, 2-(2-nitro-1H-imidazol-1-yl)-N-(2,2,3,3,3-pentafluoropropyl)acetamide]
[1]; MCL of NTR-expressing and parental HCT116 cells
  bystander property (in words): zero bystander property
[1]; cold (radiolabel-free) EF5
  concentration-time giving 90% loss of viability for nfsA expressing HCT116 cells: 0.7 mM-hr
[1]; hyperoxic (95% O2) MCLs, at concentrations achievable in α-MEM+10% FBS, activator fraction differs per experiment
  estimated bystander effect efficiency (BEE): 0%
[2]; EF5 21 mg/kg, injected
  tolerability (in words): without any toxicities
[2]; cold EF5 9 mg/kg
  concentration-time achieved in human plasma: 0.89 mM-hr
[3]
  EF5 retention versus hypoxic activation in HCT-116 parental cells (in words): clearly superior
E. coli NfsA
  enzyme kinetics with EF5 as substrate, rank among 11 E. coli NTRs (in words): highest kcat and kcat/Km ratio
